Laboratory results: patent US20060210625A1, “Sustained release of positively charged pharmacologically active molecules from a matrix containing polymers with polarized oxygen atoms” (Shire Laboratories, Inc., priority 2003, published 2006)

Test: Viscosity of HPMC K4M solution with trospium chloride (Brookfield viscometer)
Format: physicochemical
Conditions: S18 spindle
Description: Applicants have discovered that a certain interaction occurs between polarized oxygen atom containing-polymers and positively charged molecules, such as trospium chloride, which is exemplified by the dramatic change in viscosity of, for instance, an HPMC K4M solution when a drug in solution is added to it. An HPMC K4M solution was prepared and diluted to 2% by weight (or “w/w”) with either a trospium chloride solution or water. […] Without being bound to any particular theory, it is believed that this interaction leads to a slowed release of the active agent, and thus for the first time controlled release, once-daily formulations of highly water-soluble compounds can be made with relative ease.
In order to examine the interaction of trospium chloride with HPMC K4M polymer, viscosity of HPMC K4M was measured at a polymer concentration of 2% w/w at room temperature. Also examined was a 2% w/w solution of HPMC K4M containing trospium chloride at a final concentration of 16.7% w/w.
Viscosity was measured using a Brookfield viscometer fitted with an S18 spindle. Viscosity was measured at two spindle speeds. […] The contribution of the trospium chloride solution viscosity on the viscosity of the HPMC K4M solution is negligible.

SMILES: O=C(O[C@H]1C[C@H]2CC[C@@H](C1)[N+]21CCCC1)C(O)(c1ccccc1)c1ccccc1 [trospium chloride]
- viscosity of the HPMC K4M solution in the presence of the drug as compared to HPMC K4M solution without the drug (2% w/w HPMC K4M, trospium chloride 16.7% w/w, room temperature, two spindle speeds): more than doubled
- contribution of the trospium chloride solution viscosity on the viscosity of the HPMC K4M solution (Brookfield viscometer): negligible
